Results published in patent US5494930A, “Caribenolide I” (priority 1994, dated 1996).
Where “and” joins values, the source holds several entries; their conditions need not be identical. Equal values may be shown once.

What was measured:
[1] = tested on: P388 mouse leukemia; assay: In vivo antitumor activity, i.v. implanted P388 mouse leukemia (distal site)
Procedure: (§1) For in vivo evaluation of antitumor activity 1×10^6 P388 mouse leukemia cells were implanted in the intraperitoneal (i.p.) cavity or injected intravenously (i.v.) into (BALB/c ×DBA/2)F1 (CDF1) or (C57/BL6×DBA/2)F1 (BDF1) mice (Roseet al., 1983). Compound (1) was dissolved in DMSO and diluted with saline to the desired concentrations. Injection of Compound (1) was by the i.p. or i.v. route beginning on the first day after tumor implantation and consecutively every day for five treatments (qldX5:1). Increases in lifespan were reflected by the median survival time of treated (T) versus control (C) groups for which a % T/C was calculated. When antitumor activity was evaluated in M109 mouse lung .tumors, 0.2 ml of a 2.0% brei was implanted subcutaneously (s.c.) in CDF1 mice (Rose, 1981). The treatment schedule was one injection per day for days 4-8 after tumor implantation. Results are expressed as % T/C. Tumor growth inhibition was determined by calculating the relative median times for T and C mice to reach a 1 g size. Tumor weights were interchangeable with tumor size on the basis of 1 mm^3 =1 mg. The activity criterion for tumor growth inhibition (T-C) was approximately equal to a T-C of 4 days. Depending on the tumor volume doubling time for the M109 tumors in control mice, this amount of delay in tumor growth is consistent with about one log of cell kill. For both P388 and M109 tumor models, a T/C of […] was considered an active result.
(§2) Initial testing was done versus i.p. implanted P388 mouse leukemia. An optimal dose of 0.03 mg/kg/inj given i.p. produced a 50% increase in lifespan (150% T/C). In addition, Compound (1) was evaluated in two distal site models; i.v. implanted P388 or s.c. implanted M109 in which Compound (1) was given by i.v. injection.

[2] = as above; conditions: mouse, in vivo, iv; P388 i.v.; qd 1-5, i.v.; read-out: maximum tolerated dose (MTD)
Procedure: as §1, §2

[3] = tested on: P388 mouse leukemia; assay: In vivo antitumor activity, i.p. implanted P388 mouse leukemia
Procedure: as §1, §2

[4] = tested on: M109 mouse lung tumors; assay: In vivo antitumor activity, s.c. implanted M109 mouse lung tumor (distal site)
Procedure: as §1, §2

[5] = tested on: human colon carcinoma cell line HCT 116; assay: In vitro cytotoxicity assay (XTT); assay type: cell-based
Procedure: Cytotoxicity for the pure compound was assessed in several HCT116 cell lines by XTT (2,3-bis(2-methoxy-4-nitro-5-sulfophenyl)-5-[(phenylamino)carbonyl]-2H-tetrazolium hydroxide assay (Scudiero, 1988). Cells were seeded at 4000 cells/well in 96 well microtiter plates. 24 hrs later drugs were added and serial diluted. The cells were incubated at 37° C. for 72 hrs at which time the tetrazolium dye, XTT, was added. A dehydrogenase enzyme in live cells reduces the XTT to a form that absorbs light at 450 nm and which can be quantitated spectrophotometrically. The greater the absorbance the greater the number of live cells. The results are expressed as an IC50 which is the drug concentration required to inhibit cell proliferation (i.e. absorbance at 450 nm) to 50% of that of untreated control cells.

C=C1C(O)CC(=O)C(C)C=C(C)CC(O)C2(O)OC(CCC2O)CC2CCC(O2)C(CCCC)OC(=O)C(C)C(O)C2OC12 (stereo not shown) [Compound (1), caribenolide I]
increase in life span (in words) ([1]; P388 i.v., doses up to MTD 0.064 mg/kg/inj, i.v.): did not increase the life span | MST, % T/C (median survival time treated vs control) ([1]; iv, 0.064 mg/kg): 107% | MTD [2]: 0.064 mg/kg | optimal dose (OD) ([3]; P388 i.p., qd 1-5, i.p.): 0.03 mg/kg/inj and 0.030 mg/kg/inj | MST, % T/C (median survival time treated vs control) ([3]; ip, 0.03 mg/kg): 150% | increase in lifespan ([3]; ip, 0.03 mg/kg): 50% | MST, % T/C (median survival time treated vs control) ([4]; 0.060/0.120 mg/kg/inj, qd 4-8, i.v.): 128% | T-C (tumor growth delay) ([4]; 0.060/0.120 mg/kg/inj, qd 4-8, i.v., time to 1 g size): 1.3 days | distal site activity (in words) ([4]; i.v. dosing): no meaningful distal site activity | OD, first printed value ([4]; qd 4-8, i.v.): 0.060 mg/kg/inj | OD, second printed value ([4]; qd 4-8, i.v.): 0.120 mg/kg/inj | cytotoxicity in vitro (in words) [5]: potent cytotoxicity | IC50 ([5]; human colon carcinoma HCT 116, XTT, 72 hrs): 1.6 nM
